In ChEMBL document CHEMBL1201862, “PubChem BioAssay data set” (2004):
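Exposure lasted 48 hours, with cells grown in 96-well plates and compounds tested at five concentrations. GI50: concentration for 50% inhibition of growth.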 Activity calls are given as the source filed them. Rule as the data show it: active = GI50 up to about 1.1 µM and inactive = higher.

Assays:
Assay in all cases: DTP human tumour cell line panel, 48 h
K562 = tested on: K562
SK-OV-3 = tested on: SK-OV-3
OVCAR-5 = tested on: OVCAR-5
NCI-H460 = tested on: NCI-H460
SK-MEL-5 = tested on: SK-MEL-5
SF-539 = tested on: SF-539
HOP-92 = tested on: HOP-92
A549 = tested on: A549
SK-MEL-28 = tested on: SK-MEL-28
HCC 2998 = tested on: HCC 2998
CCRF-CEM = tested on: CCRF-CEM
ACHN = tested on: ACHN
IGROV-1 = tested on: IGROV-1
NCI-H23 = tested on: NCI-H23
CAKI-1 = tested on: CAKI-1
EKVX = tested on: EKVX
SNB-75 = tested on: SNB-75

Measured: GI50

CCCNC(=O)C1C(=O)C(=O)N(CCC)C1=O (stereo unspecified)
inactive: K562 > 100 µM | SK-OV-3 > 100 µM | OVCAR-5 56.9 µM | NCI-H460 > 100 µM | SK-MEL-5 > 100 µM | SF-539 > 100 µM | HOP-92 > 100 µM | A549 > 100 µM | SK-MEL-28 > 100 µM | HCC 2998 > 100 µM | CCRF-CEM > 100 µM | ACHN > 100 µM | IGROV-1 > 100 µM | NCI-H23 > 100 µM | CAKI-1 > 100 µM | EKVX > 100 µM | SNB-75 > 100 µM

Cc1cccc(N(CC(=O)O)S(=O)(=O)c2ccccc2)c1
inactive: K562 > 100 µM | SK-OV-3 > 100 µM | OVCAR-5 > 100 µM | NCI-H460 > 100 µM | SK-MEL-5 > 100 µM | SF-539 > 100 µM | HOP-92 > 100 µM | A549 > 100 µM | SK-MEL-28 > 100 µM | HCC 2998 > 100 µM | CCRF-CEM > 100 µM | ACHN > 100 µM | IGROV-1 > 100 µM | NCI-H23 > 100 µM | CAKI-1 > 100 µM | EKVX > 100 µM | SNB-75 > 100 µM

N#CC(C(=O)CCC(=O)Nc1cccc(C(F)(F)F)c1)c1ccc(Cl)cc1 (stereo unspecified)
inactive: K562 > 100 µM | SK-OV-3 > 100 µM | OVCAR-5 > 100 µM | NCI-H460 > 100 µM | SK-MEL-5 > 100 µM | SF-539 > 100 µM | HOP-92 > 100 µM | A549 > 100 µM | HCC 2998 > 100 µM | CCRF-CEM > 100 µM | ACHN > 100 µM | IGROV-1 > 100 µM | NCI-H23 > 100 µM | CAKI-1 > 100 µM | EKVX > 100 µM

Cc1cc(=O)n(-c2c(C)cccc2Cl)c(/C=C(\O)c2ccncc2)n1
inactive: K562 44.8 µM | SK-OV-3 > 100 µM | OVCAR-5 98.6 µM | NCI-H460 > 100 µM | SK-MEL-5 96.4 µM | SF-539 > 100 µM | HOP-92 62.1 µM | A549 > 100 µM | SK-MEL-28 > 100 µM | HCC 2998 > 100 µM | CCRF-CEM > 100 µM | ACHN > 100 µM | IGROV-1 > 100 µM | NCI-H23 > 100 µM | CAKI-1 > 100 µM | EKVX > 100 µM | SNB-75 29.4 µM
